This assay deals with 817829-284-R-J1-PDC complex spheroids, viability. Kind of assay: Anticancer human tumor 817829-284-R-J1-PDC patient-derived colon adenocarcinoma cell line growth inhibition [GQUAD]. The following applies: for viability, T/C: stronger effect = lower value. An excerpt:
DNA G-quadruplex Stabilizer Agents in Combinations in Complex Spheroids
A high-throughput screen of multi-cell type tumor spheroids was designed to identify active combinations of DNA G-quadruplex stabilizer agents and targeted small molecules. Complex spheroids include a stromal component modeled by human endothelial cells (HUVEC) and fibroblasts modeled by human mesenchymal stem cells (MSCs). The concentration ranges selected for each drug and investigational agent were based upon clinically achievable concentrations if the clinical Cmax of the agent was known.
Compounds. The drugs and investigational agents: pidnarulex (CX-5461; NSC782164), APTO-253 (NSC789042), BRACO-19 (NSC847499), peposertib (NSC802822), ceralasertib (NSC780249), elimusertib (NSC800525), camonsertib (NSC841442), AZD-1390 (NSC803789), olaparib (NSC753686), talazoparib (NSC767125), ART-558 (NSC835418), sotorasib (NSC818433), MRTX-1133 (NSC836407), SN-38 (NSC673596), topotecan (NSC609699), etoposide (NSC141540), doxorubicin (NSC123127), gemcitabine (NSC613327), 5-fluorouracil (NSC19893), paclitaxel (NSC125973), vemurafenib (NSC761431), panobinostat (NSC761190), R-306465 (JNJ-16241199; NSC773264), adavosertib (NSC754352), TP-3654 (NSC805149), carboplatin (NSC241240), KSQ-4279 (NSC840948), and staurosporine (NSC755774) were obtained from the National Cancer Institute (NCI) Developmental Therapeutics Program Chemical Repository (34). The FDA-approved anticancer drug set is available from the NCI Developmental Therapeutics Program. […] The stock solutions were prepared in dimethyl sulfoxide (DMSO, Sigma-Aldrich, St. Louis, MO, cat. D2650) at 800-fold the tested concentration and stored at -70 degrees C prior to their use. All drugs and investigational agents were tested over a range starting from a high concentration at or near the clinical Cmax and decreasing in half-log increments. If the clinical Cmax for an agent had not been determined, the highest concentration tested was 10 microM.
2.3 Cell Culture. All cells were maintained in an incubator at 37 degrees C and 5% CO2 with 95% humidity. The PDC lines were cultured according to standard operating procedures established by the NCI PDMR. All PDCs were thawed and cultured in Matrigel-coated flasks prepared with a working solution of 1X Ham's F-12 nutrient mix, without supplementation (Invitrogen, cat. 11765054), 100 U/mL penicillin-streptomycin (Invitrogen, cat. 15140122), and 2.5% Matrigel (Corning Inc., cat. 354248) for the first three passages. The 857933-349-R-J2-PDC line was cultured in 6C/Colon 1B media, which includes advanced DMEM/F-12 (Thermo Fisher Scientific, cat. 12634028), 10 mM HEPES (Thermo Fisher Scientific, cat. 15630080), 1X GlutaMAX supplement (Thermo Fisher Scientific, cat. 35050061), 0.1 mg/mL primocin (InvivoGen, cat. ant-pm-2), 10% defined fetal bovine serum, heat inactivated (HyClone Laboratories Inc., cat. SH30070.03HI), 50% L-WRN conditioned media (ATCC, cat. CRL-3276), 1.25 mM N-Acetyl-L-cysteine (Sigma-Aldrich, cat. A9165), 10 mM nicotinamide (Sigma-Aldrich, cat. N0636), 1X B-27 supplement (Thermo Fisher Scientific, cat. 17504044), 1X N-2 supplement (Thermo Fisher Scientific, cat. 17502048), 10 microM Y-27632 dihydrochloride (Tocris Bioscience, cat. 1254), and 50 ng/mL human EGF recombinant protein (Thermo Fisher Scientific, cat. PHG0311). The 485176-168-R4-J1-PDC line was cultured in Panc media, which includes all 6C/Colon 1B media components plus 100 ng/mL human FGF-10 (Thermo Fisher Scientific, cat. 100-26), 500 nM SB-431542 (Selleckchem, cat. S1067), and gastrin (Tocris, cat. 3006).
[…]

Where [1] appears, read: curve of first compound, second compound 0.0316 µM.
Where [2] appears, read: curve of first compound, second compound 0.1 µM.
[3] abbreviates: curve of first compound, second compound 0.316 µM.
Setting [4] is: curve of first compound, second compound 1 µM.
Setting [5] is: curve of first compound, second compound 3.16 µM.
Where [6] appears, read: curve of first compound, second compound 10 µM.
Where [7] appears, read: second compound 0.0316 µM, first compound 0.0316 µM.
Setting [8] is: second compound 0.0316 µM, first compound 0.316 µM.
[9] abbreviates: second compound 0.1 µM, first compound 0.0316 µM.
Where [10] appears, read: second compound 0.1 µM, first compound 0.316 µM.
The mark [11] stands for this setting: second compound 0.316 µM, first compound 0.0316 µM.
[12] abbreviates: second compound 0.316 µM, first compound 0.316 µM.
[13] abbreviates: second compound 1 µM, first compound 0.0316 µM.
Where [14] appears, read: second compound 1 µM, first compound 0.316 µM.
Setting [15] is: second compound 3.16 µM, first compound 0.0316 µM.
Where [16] appears, read: second compound 3.16 µM, first compound 0.316 µM.
[17] abbreviates: second compound 10 µM, first compound 0.0316 µM.
Setting [18] is: second compound 10 µM, first compound 0.316 µM.

Several values for one entry are separate records, joined by “and”; a condition that tells them apart may be missing. Identical values can stand only once.

Usually viability, T/C stands for the result in the treated group divided by that in the control group, in per cent. In general, IC50 refers to the concentration that inhibits the measured activity by half.
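Also: spheroids exposed to agents for 7 days before readout.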
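For viability, T/C in this document: percent viability relative to DMSO vehicle control taken as 100%.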

For the compound `Cc1[nH]c2ccc(F)cc2c1-c1nc2c3cccnc3c3ncccc3c2[nH]1`, the viability, T/C was 103% [middle of 12 runs] (compound 0.1 µM), 106% [middle of 12 runs] (compound 0.316 µM) and 99.8% [middle of 12 runs] (compound 1 µM). Also, where the note is “compound alone, run of 02/20/2024”, the IC50 was 3.3 µM [middle of 8 runs].

`O=C(NO)c1cnc(N2CCN(S(=O)(=O)c3ccc4ccccc4c3)CC2)nc1`: the viability, T/C runs as follows: (compound 0.0316 µM) 114% and 111% and 117%; (compound 0.1 µM) 17.6% and 102% and 59%; (compound 0.316 µM) 0.33% and 5.46% and 5.25%; (compound 1 µM) 0.17% and 0.29% and 0.13%; (compound 3.16 µM) 0.1% and 0.26% and 0.04%; (compound 10 µM) 0.15% and 0.25% and 0.07%. Also, the half-maximal inhibitory concentration (IC50) (curve of compound) is 67.9 nM and 186 nM and 121 nM.

Take `Cn1ncnc1[C@H]1c2n[nH]c(=O)c3cc(F)cc(c23)N[C@@H]1c1ccc(F)cc1` + Cc1[nH]c2ccc(F)cc2c1-c1nc2c3cccnc3c3ncccc3c2[nH]1: the IC50 under setting [1] is > 316 nM; the 50% inhibitory concentration (IC50) under setting [2] is > 316 nM; the half-inhibitory concentration (IC50) under setting [3] was > 316 nM; the IC50 under setting [4] is > 316 nM; the 50% inhibitory concentration (IC50) under setting [5] amounted to 148 nM; the concentration for half-maximal inhibition (IC50) under setting [6] is 79.9 nM. The viability, T/C runs as follows: (second compound 0.0316 µM, first compound 0.000999 µM) 93.8%; (second compound 0.0316 µM, first compound 0.00316 µM) 88.8%; (second compound 0.0316 µM, first compound 0.00999 µM) 95.5%; under setting [7], 82.2%; (second compound 0.0316 µM, first compound 0.0999 µM) 96.1%; under setting [8], 74.7%. Moreover, the viability, T/C (second compound 0.1 µM, first compound 0.000999 µM) is 93.5%; the viability, T/C (second compound 0.1 µM, first compound 0.00316 µM) is 109%; the viability, T/C (second compound 0.1 µM, first compound 0.00999 µM) is 94.5%; the viability, T/C under setting [9] was 106%; the viability, T/C (second compound 0.1 µM, first compound 0.0999 µM) is 89.2%; the viability, T/C under setting [10] was 76.3%. The viability, T/C is 83.9% (second compound 0.316 µM, first compound 0.000999 µM); 115% (second compound 0.316 µM, first compound 0.00316 µM); 102% (second compound 0.316 µM, first compound 0.00999 µM); 105% under setting [11]; 86.5% (second compound 0.316 µM, first compound 0.0999 µM); 69.6% under setting [12]. Also, the viability, T/C by setting is: (second compound 1 µM, first compound 0.000999 µM) 82.6%; (second compound 1 µM, first compound 0.00316 µM) 108%; (second compound 1 µM, first compound 0.00999 µM) 116%; under setting [13], 103%; (second compound 1 µM, first compound 0.0999 µM) 80%; under setting [14], 68.4%. The viability, T/C by setting is: (second compound 3.16 µM, first compound 0.000999 µM) 89.1%; (second compound 3.16 µM, first compound 0.00316 µM) 90.6%; (second compound 3.16 µM, first compound 0.00999 µM) 87.5%; under setting [15], 83.2%; (second compound 3.16 µM, first compound 0.0999 µM) 54.6%; under setting [16], 41.1%. For the same compound, the viability, T/C (second compound 10 µM, first compound 0.000999 µM) was 69.3%; the viability, T/C (second compound 10 µM, first compound 0.00316 µM) was 73.9%; the viability, T/C (second compound 10 µM, first compound 0.00999 µM) is 76.3%; the viability, T/C under setting [17] is 75.8%; the viability, T/C (second compound 10 µM, first compound 0.0999 µM) is 44.3%; the viability, T/C under setting [18] was 24.1%.

As for `C=CCn1c(=O)c2cnc(Nc3ccc(N4CCN(C)CC4)cc3)nc2n1-c1cccc(C(C)(C)O)n1` + CN(C)c1ccc(Nc2c3ccc(NC(=O)CCN4CCCC4)cc3nc3cc(NC(=O)CCN4CCCC4)ccc23)cc1, the concentration for half-maximal inhibition (IC50) is 240 nM under setting [1]; 220 nM under setting [2]; 263 nM under setting [3]; 231 nM under setting [4]; 214 nM under setting [5]; 190 nM under setting [6]. Further, the viability, T/C is 99.2% under setting [7]; 106% (second compound 0.0316 µM, first compound 0.1 µM); 33.4% under setting [8]; 9.73% (second compound 0.0316 µM, first compound 1 µM); 6.22% (second compound 0.0316 µM, first compound 3.16 µM); 6.74% (second compound 0.0316 µM, first compound 10 µM). Further, the viability, T/C was 88.5% under setting [9]; 101% (second compound 0.1 µM, first compound 0.1 µM); 29.5% under setting [10]; 9.11% (second compound 0.1 µM, first compound 1 µM); 7.3% (second compound 0.1 µM, first compound 3.16 µM); 5.57% (second compound 0.1 µM, first compound 10 µM). Besides, the viability, T/C under setting [11] was 102%; the viability, T/C (second compound 0.316 µM, first compound 0.1 µM) is 109%; the viability, T/C under setting [12] is 39.2%; the viability, T/C (second compound 0.316 µM, first compound 1 µM) is 9.34%; the viability, T/C (second compound 0.316 µM, first compound 3.16 µM) is 7.03%; the viability, T/C (second compound 0.316 µM, first compound 10 µM) is 5.88%. Moreover, the viability, T/C is 99.8% under setting [13]; 102% (second compound 1 µM, first compound 0.1 µM); 30.9% under setting [14]; 9.37% (second compound 1 µM, first compound 1 µM); 6.93% (second compound 1 µM, first compound 3.16 µM); 6.42% (second compound 1 µM, first compound 10 µM). Also, the viability, T/C is 89.3% under setting [15]; 102% (second compound 3.16 µM, first compound 0.1 µM); 26.4% under setting [16]; 10.9% (second compound 3.16 µM, first compound 1 µM); 7.22% (second compound 3.16 µM, first compound 3.16 µM); 5.95% (second compound 3.16 µM, first compound 10 µM). For the same compound, the viability, T/C was 104% under setting [17]; 82.4% (second compound 10 µM, first compound 0.1 µM); 24% under setting [18]; 11.2% (second compound 10 µM, first compound 1 µM); 7.11% (second compound 10 µM, first compound 3.16 µM); 2.4% (second compound 10 µM, first compound 10 µM).

For the origin of these results see PubChem BioAssay AID2060503 (Molecular Pharmacology Branch, DTP, NCI, 2025).
